Data published in PubChem BioAssay AID1919014 (Molecular Pharmacology Branch, DTP, NCI, 2023).

Test system: NCI-H1341 complex spheroids, percent test/control
Assay: Anticancer human tumor NCI-H1341 cell line growth inhibition [AhR];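 further: spheroids exposed to agents for seven days before readout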
Settings: for IC50: curve of first compound; for viability, T/C: stronger effect = lower value
From the text: Multicellular complex tumor spheroid response to aryl hydrocarbon receptor antagonists in combination with a variety of drugs and investigational agents in selected tumor cell lines
The current study was undertaken to assess response to aryl hydrocarbon receptor antagonists in combination with standard-of-care drugs and investigational agents in solid tumor complex spheroid models. Complex spheroids include a stromal component modeled by human endothelial cells (HUVEC) and fibroblasts modeled by human mesenchymal stem cells (MSCs). The concentration ranges selected for each drug and investigational agent were based upon clinically achievable concentrations if the clinical Cmax of the agent was known.
Compounds. The drugs and investigational agents: BAY 2416964 (NSC825713), GNF351 (NSC835774), CH-223191 (NSC835775), CPI-455 (NSC825282), aza-TdCyd (NSC777586), decitabine (NSC127716), belinostat (NSC758774), entinostat (NSC756642), pevonedistat (NSC761192), tazemetostat (NSC777109), talazoparib (NSC765396), olaparib (NSC753686), selinexor (NSC780203), nedisertib (M3814, NSC802822), bortezomib (NSC756655), venetoclax (NSC766270), doxorubicin (NSC123127), elimusertib (BAY189344, NSC800525), ceralasertib (AZD6738, NSC777638), TAK-243 (NSC785004), alisertib (NSC759677), etoposide (NSC141540), topotecan (NSC609699), eribulin (NSC707389), gemcitabine (NSC613327), carboplatin (NSC241240), cisplatin (NSC119875), and SN-38 (NSC673596) were obtained from the National Cancer Institute (NCI) Developmental Therapeutics Program Chemical Repository (32). The FDA-approved anticancer drug set is available from the Developmental Therapeutics Program at https://dtp.cancer.gov/organization/dscb/obtaining/available plates.htm. […] The stock solutions were prepared in dimethyl sulfoxide (DMSO, Sigma-Aldrich, St. Louis, MO, cat. D2650), except for the platinum compounds which were prepared in saline (Quality Biological, Gaithersburg, MD, cat. 114-055-101), at 800-fold the tested concentration and stored at -70 degrees C prior to their use. All drugs and investigational agents were tested over a range starting from a high concentration at or near the clinical Cmax and decreasing in half-log increments. If the clinical Cmax for an agent had not been determined, the highest concentration tested was 10 microM (Table 1).
Cell Culture. All cells were maintained in an incubator at 37 degrees C and 5% CO2 with 95% humidity. The PDC lines were cultured according to standard operating procedures established by the NCI PDMR (https://pdmr.cancer.gov). Briefly, all PDCs were thawed and cultured in Matrigel-coated flasks prepared with a working solution of 1X Ham's F-12 nutrient mix, without supplementation (Invitrogen, Waltham, MA, cat. 11765054), 100 U/mL penicillin-streptomycin (Invitrogen, cat. 15140122), and 2.5% Matrigel (Corning Inc., Corning, NY, cat. 354248) for the first three passages. All PDCs were cultured in complete DMEM/F-12 media containing advanced DMEM/F-12 (Invitrogen, cat. 12634028), 4.9% defined fetal bovine serum, heat inactivated (HyClone Laboratories Inc., Logan, UT, cat. SH30070.03HI), 389 ng/mL hydrocortisone (Sigma-Aldrich, cat. H4001), 9.7 ng/mL human EGF recombinant protein (Invitrogen, cat. PHG0313), 23.4 microg/mL adenine (Sigma-Aldrich, cat. A2786), 97.3 U/mL penicillin-streptomycin (Invitrogen, cat. 15140122), 1.9 mM L-glutamine (Invitrogen, cat. 25030081), and 9.7 microM Y-27632 dihydrochloride (Tocris Bioscience, Bristol, United Kingdom, cat. 1254). The PDCs were cultured in complete DMEM/F12 media without 10 microM Y-27632 dihydrochloride for at least two passages prior to the screen. The established cell lines NCI-H1341 and […] were cultured in DMEM/F-12, HEPES (Invitrogen, cat. 11330032), 5% defined fetal bovine serum (HyClone Laboratories Inc., cat. SH30070.03), ITS premix universal culture supplement [insulin (5 microg/mL), transferrin (5 microg/mL), and selenious acid (5 ng/mL)] […]

[1] = second compound 0.1 µM, first compound 0.0316 µM
[2] = second compound 0.1 µM, first compound 0.1 µM
[3] = second compound 0.1 µM, first compound 0.316 µM
[4] = second compound 0.1 µM, first compound 1 µM
[5] = second compound 0.1 µM, first compound 3.16 µM
[6] = second compound 0.1 µM, first compound 10 µM
[7] = second compound 0.316 µM, first compound 0.0316 µM
[8] = second compound 0.316 µM, first compound 0.1 µM
[9] = second compound 0.316 µM, first compound 0.316 µM
[10] = second compound 0.316 µM, first compound 1 µM
[11] = second compound 0.316 µM, first compound 3.16 µM
[12] = second compound 0.316 µM, first compound 10 µM
[13] = second compound 1 µM, first compound 0.0316 µM
[14] = second compound 1 µM, first compound 0.1 µM
[15] = second compound 1 µM, first compound 0.316 µM
[16] = second compound 1 µM, first compound 1 µM
[17] = second compound 1 µM, first compound 3.16 µM
[18] = second compound 1 µM, first compound 10 µM
[19] = second compound 3.16 µM, first compound 0.0316 µM
[20] = second compound 3.16 µM, first compound 0.1 µM
[21] = second compound 3.16 µM, first compound 0.316 µM
[22] = second compound 3.16 µM, first compound 1 µM
[23] = second compound 3.16 µM, first compound 3.16 µM
[24] = second compound 3.16 µM, first compound 10 µM
[25] = second compound 10 µM, first compound 0.0316 µM
[26] = second compound 10 µM, first compound 0.1 µM
[27] = second compound 10 µM, first compound 0.316 µM
[28] = second compound 10 µM, first compound 1 µM
[29] = second compound 10 µM, first compound 3.16 µM
[30] = second compound 10 µM, first compound 10 µM

SMILES: CCc1c2c(nc3ccc(O)cc13)-c1cc3c(c(=O)n1C2)COC(=O)[C@]3(O)CC + CC(CO)NC(=O)c1cc(-c2ccc(Cl)cc2)nn(-c2cnn(C)c2)c1=O
- IC50 (second compound 0.1 µM): 0.0123 µM
- IC50 (second compound 0.316 µM): 0.0079 µM
- IC50 (second compound 1 µM): 0.0096 µM
- IC50 (second compound 3.16 µM): 0.00517 µM
- IC50 (second compound 10 µM): 0.00347 µM
- viability, T/C (second compound 0.1 µM, first compound 0.000949 µM): 67.7%
- viability, T/C (second compound 0.1 µM, first compound 0.003 µM): 74%
- viability, T/C (second compound 0.1 µM, first compound 0.00949 µM): 46.6%
- viability, T/C (second compound 0.1 µM, first compound 0.03 µM): 38.8%
- viability, T/C (second compound 0.1 µM, first compound 0.0949 µM): 30.7%
- viability, T/C (second compound 0.1 µM, first compound 0.3 µM): 16.9%
- viability, T/C (second compound 0.316 µM, first compound 0.000949 µM): 71.8%
- viability, T/C (second compound 0.316 µM, first compound 0.003 µM): 61.8%
- viability, T/C (second compound 0.316 µM, first compound 0.00949 µM): 48.1%
- viability, T/C (second compound 0.316 µM, first compound 0.03 µM): 33.4%
- viability, T/C (second compound 0.316 µM, first compound 0.0949 µM): 26.5%
- viability, T/C (second compound 0.316 µM, first compound 0.3 µM): 16%
- viability, T/C (second compound 1 µM, first compound 0.000949 µM): 62.8%
- viability, T/C (second compound 1 µM, first compound 0.003 µM): 67.6%
- viability, T/C (second compound 1 µM, first compound 0.00949 µM): 48.2%
- viability, T/C (second compound 1 µM, first compound 0.03 µM): 31.4%
- viability, T/C (second compound 1 µM, first compound 0.0949 µM): 29.5%
- viability, T/C (second compound 1 µM, first compound 0.3 µM): 17.4%
- viability, T/C (second compound 3.16 µM, first compound 0.000949 µM): 73%
- viability, T/C (second compound 3.16 µM, first compound 0.003 µM): 53.2%
- viability, T/C (second compound 3.16 µM, first compound 0.00949 µM): 39%
- viability, T/C (second compound 3.16 µM, first compound 0.03 µM): 37.4%
- viability, T/C (second compound 3.16 µM, first compound 0.0949 µM): 26.5%
- viability, T/C (second compound 3.16 µM, first compound 0.3 µM): 14.1%
- viability, T/C (second compound 10 µM, first compound 0.000949 µM): 61%
- viability, T/C (second compound 10 µM, first compound 0.003 µM): 47.9%
- viability, T/C (second compound 10 µM, first compound 0.00949 µM): 43.8%
- viability, T/C (second compound 10 µM, first compound 0.03 µM): 32.4%
- viability, T/C (second compound 10 µM, first compound 0.0949 µM): 23.4%
- viability, T/C (second compound 10 µM, first compound 0.3 µM): 10.8%

SMILES: Nc1ccn(C2OC(CO)C(O)C2(F)F)c(=O)n1 (stereo not given) + CC(CO)NC(=O)c1cc(-c2ccc(Cl)cc2)nn(-c2cnn(C)c2)c1=O
- IC50 (second compound 0.1 µM): < 0.0316 µM
- IC50 (second compound 0.316 µM): < 0.0316 µM
- IC50 (second compound 1 µM): < 0.0316 µM
- IC50 (second compound 3.16 µM): < 0.0316 µM
- IC50 (second compound 10 µM): < 0.0316 µM
- viability, T/C [1]: 28%
- viability, T/C [2]: 28%
- viability, T/C [3]: 27.7%
- viability, T/C [4]: 25.3%
- viability, T/C [5]: 27.3%
- viability, T/C [6]: 26.4%
- viability, T/C [7]: 30.9%
- viability, T/C [8]: 29.1%
- viability, T/C [9]: 25.6%
- viability, T/C [10]: 26.9%
- viability, T/C [11]: 24.4%
- viability, T/C [12]: 24.1%
- viability, T/C [13]: 28.6%
- viability, T/C [14]: 29.3%
- viability, T/C [15]: 30.5%
- viability, T/C [16]: 23.8%
- viability, T/C [17]: 26.1%
- viability, T/C [18]: 25.9%
- viability, T/C [19]: 30.1%
- viability, T/C [20]: 29.1%
- viability, T/C [21]: 30%
- viability, T/C [22]: 24%
- viability, T/C [23]: 25.3%
- viability, T/C [24]: 27%
- viability, T/C [25]: 33.6%
- viability, T/C [26]: 29.8%
- viability, T/C [27]: 27.4%
- viability, T/C [28]: 24.3%
- viability, T/C [29]: 22.3%
- viability, T/C [30]: 21.4%

SMILES: O=C(c1cc(Cc2n[nH]c(=O)c3ccccc23)ccc1F)N1CCN(C(=O)C2CC2)CC1 + CC(CO)NC(=O)c1cc(-c2ccc(Cl)cc2)nn(-c2cnn(C)c2)c1=O
- IC50 (second compound 0.1 µM): > 10 µM
- IC50 (second compound 0.316 µM): > 10 µM
- IC50 (second compound 1 µM): > 10 µM
- IC50 (second compound 3.16 µM): > 10 µM
- IC50 (second compound 10 µM): > 10 µM
- viability, T/C [1]: 89.5%
- viability, T/C [2]: 98.4%
- viability, T/C [3]: 93.7%
- viability, T/C [4]: 89.2%
- viability, T/C [5]: 82.4%
- viability, T/C [6]: 70.6%
- viability, T/C [7]: 96.1%
- viability, T/C [8]: 93.6%
- viability, T/C [9]: 91.6%
- viability, T/C [10]: 80.1%
- viability, T/C [11]: 77.1%
- viability, T/C [12]: 72.7%
- viability, T/C [13]: 80.6%
- viability, T/C [14]: 105%
- viability, T/C [15]: 97.3%
- viability, T/C [16]: 81.5%
- viability, T/C [17]: 86.8%
- viability, T/C [18]: 74.6%
- viability, T/C [19]: 94.4%
- viability, T/C [20]: 90.6%
- viability, T/C [21]: 94.8%
- viability, T/C [22]: 75.9%
- viability, T/C [23]: 84.2%
- viability, T/C [24]: 60.7%
- viability, T/C [25]: 70.2%
- viability, T/C [26]: 77.5%
- viability, T/C [27]: 85%
- viability, T/C [28]: 65.9%
- viability, T/C [29]: 71.9%
- viability, T/C [30]: 58.6%
